Assay results: paper PMC8365446, “Structural determinants and distribution of phosphate specificity in ribonucleotide reductases” (The Journal of Biological Chemistry, 2021)
Where two headings read alike, the source gives them in different places.

Experiments:
TVNrdJm [1] = test system: T1, TVNrdJm; settings: read-out: apparent KM; effector dTTP, adenosylcobalamin, TCEP, 20 mmol L^−1 MgCl2, Tris pH 8.0, 40 °C; apparent fitted value, called lower boundary by authors (substrate inhibition omitted)
T1 construct: gene nrdJ

TVNrdJm [2] = test system: T2, TVNrdJm; assay: HPLC quantification of deoxyribonucleotide, Michaelis-Menten fit; assay type: biochemical, Thermus virus P74-23; settings: effector dTTP, adenosylcobalamin, TCEP, 20 mmol L^−1 MgCl2, Tris pH 8.0, 40 °C
T2 construct: gene nrdJ; monomeric-type class II RNR; pET28b(+) NdeI/HindIII, E. coli BL21(DE3); apical loop P-A-G-R with A67, G68, R69

| Compound | Km (TVNrdJm [1]) [µM] | Km (TVNrdJm [2]) [µM] |
| --- | --- | --- |
| Nc1nc2c(ncn2[C@@H]2O[C@H](COP(=O)(O)OP(=O)(O)O)[C@@H](O)[C@H]2O)c(=O)[nH]1 [GDP] | > 6850 |  |
| Nc1nc2c(ncn2[C@@H]2O[C@H](COP(=O)(O)OP(=O)(O)OP(=O)(O)O)[C@@H](O)[C@H]2O)c(=O)[nH]1 [GTP] |  | 300 ± 60 |
